17 compounds from PMC3785238 (Cell, 2013) can be followed below.

For assay [1], the system named is locomotor activity of mice. Kind of assay: Cocaine locomotion and motor sensitization. It counts as in vivo, mouse.
The subject of assay [2] is glutamate and dopamine in the nucleus accumbens. The experiment in a line: In vivo microdialysis: glutamate and dopamine in nucleus accumbens. The arrangement: species or system mouse.
Another assay has as its system Pin1-mGluR5. The experiment in a line: Pin1 co-immunoprecipitation with mGluR5 from mouse striatum. It counts as in vivo.
The subject of assay [3] is mGluR5. The experiment in a line: mGluR5 phosphorylation and Homer1a expression in mouse striatum. Type of assay: in vivo.
The test system of a further assay is NMDA receptors. Kind of assay: Whole-cell voltage clamp: mGluR5-SIC, NMDA receptor dependence. Type of assay: cell-based.
A further assay has as its system GST-Pin1. It counts as binding. The settings on record: mGluR5 expressed in HEK293 cells.
Assay [4] concerns mGluR5-SIC. It counts as cell-based, mouse. The settings on record: Homer1−/−Homer2−/−Homer3−/− neurons; for effect of Pin1 peptide on BDNF potentiation of mGluR5-SIC: 0.5 μM in the pipette, n = 5.
Assay [5] addresses T1, Homer1a (Rattus norvegicus, UniProt Q9Z214).
T1 sequence (Q9Z214 1-186 isoform Q9Z214-3): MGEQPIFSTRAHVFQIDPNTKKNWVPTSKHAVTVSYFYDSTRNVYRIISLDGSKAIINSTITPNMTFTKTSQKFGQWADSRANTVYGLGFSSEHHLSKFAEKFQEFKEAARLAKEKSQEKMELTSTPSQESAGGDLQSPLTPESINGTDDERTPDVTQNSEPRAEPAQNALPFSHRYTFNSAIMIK
Kind of assay: Homer1a induction in cultured striatal neurons. The settings on record: 30 min, 50 mM KCl. Type of assay: cell-based.

In assay [6] the test system is mGluR5. The settings on record: bath application, 5 μM.
The target in another assay is Pin1 (Homo sapiens, UniProt Q13526). Kind of assay: 15N ZZ-exchange NMR: Pin1-catalyzed cis/trans isomerization of mGluR5 peptide. It counts as biochemical. To be noted: Homer1a equimolar to peptide; Pin1 sub-stoichiometric (1:10).
In assay [7] the target is T1, Homer1a. The experiment in a line: ITC of mGluR5 peptide into full length Homer1a. It counts as binding. The settings on record: versus unphosphorylated peptide.
For assay [8], the system named is mGluR5-SIC. The experiment in a line: Whole-cell voltage clamp: SKF38393. It counts as cell-based, mouse.
In assay [9] the test system is corticostriatal synapse depotentiation. Kind of assay: Field potential recording: depotentiation of corticostriatal LTP. The arrangement: species or system mouse. To be noted: SKF38393 3 μM.
[10] abbreviates: i.p. four times, 10 or 30 mg/kg.
Where [11] appears, read: 10 mg/kg, WT n = 7, Grm5AA/AA n = 9.
[12] abbreviates: 20 mg/kg, i.p., mice, n = 6 each group.

Non-standard residues stand in square brackets, D forms with d. No end group written: not given here. pS = N[C@@H](COP(=O)(O)O)C(=O)O

Chain of Pin1 (Q13526 whole entry, species assumed): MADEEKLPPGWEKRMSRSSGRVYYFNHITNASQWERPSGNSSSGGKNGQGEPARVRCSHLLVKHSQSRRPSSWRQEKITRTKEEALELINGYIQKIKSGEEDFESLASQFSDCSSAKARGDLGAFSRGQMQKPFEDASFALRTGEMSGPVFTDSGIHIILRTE

Regarding `COC(=O)[C@H]1[C@@H](OC(=O)c2ccccc2)C[C@@H]2CC[C@H]1N2C` [cocaine], in assay [1] (acute, i.p., 10 or 30 mg/kg), the “acute locomotor response, Grm5AA/AA mice” value is “increased locomotor response to acute cocaine” and the “acute locomotor response, Grm5TS/AAPin1+/− double heterozygotes” value is listed as “WT-levels of activity in response to acute cocaine”. For the same compound, in assay [1] (setting [10]), the “motor sensitization, Grm5AA/AA mice” value is reported as “markedly reduced sensitization”; the “motor sensitization, Grm5TS/AAPin1+/− double heterozygotes” value was “reduced motor sensitization”; the “motor sensitization, Homer1a−/− mice” value is “profound deficit of cocaine motor sensitization”. Besides, the “acute locomotor response, Homer1a−/− mice” value in [1] (initial dose, i.p. 10 or 30 mg/kg) is on record as “WT-like response to the initial dose of cocaine”. In [2] (setting [11]), the “dopamine response, Grm5AA/AA mice, 1st injection” value was “modest reduction” and the “glutamate response, Grm5AA/AA mice, 1st injection” value is recorded as “normal glutamate response”. Besides, in assay [2] (10 mg/kg, WT n = 7, Grm5AA/AA n = 9, P < 0.05), the “glutamate and dopamine response, Grm5AA/AA mice, 4th injection” value is “blunted neurotransmitter responsiveness”. In assay [2] (30 mg/kg, n = 8 each group), the “glutamate and dopamine response, Homer1a−/− mice, 1st injection” value is “normal glutamate and dopamine responses”. For the same compound, the “glutamate and dopamine response, Homer1a−/− mice, 4th injection” value in assay [2] (30 mg/kg, n = 8 each group, P < 0.05) is on record as “blunted neurotransmitter responsiveness”. For the same compound, the “Pin1 co-immunoprecipitation with mGluR5, Homer triple knockout” value in the assay with Pin1-mGluR5 (10 mg/kg, i.p., 30 min, Homer1−/−Homer2−/−Homer3−/− mice) is on record as “increases after cocaine administration”. Besides, the “increase of Pin1 binding, WT mice” value with Pin1-mGluR5 (acute cocaine, WT mice) was “did not detect an increase of Pin1 binding in WT mice”. The “mGluR5 phosphorylation, WT and Homer triple knockout” value in the assay on mGluR5 [3] (10 mg/kg, i.p., 30 min, WT n = 6, Homer1−/−Homer2−/−Homer3−/− n = 7, versus saline) was “increased mGluR5 phosphorylation”. Besides, in the assay with mGluR5 [3] (setting [12]), the “Homer1a expression in striatum” value was “induces Homer1a expression”, the “mGluR5 Ser-1126 phosphorylation in striatum” value is on record as “induces transient phosphorylation” and the “mGluR5 Thr-1123 phosphorylation in striatum” value is recorded as “not Thr-1123”. In addition, the “double phosphorylation of mGluR5” value with mGluR5 [3] (cocaine administration, immunoselection of pT1123) is “Double phosphorylation is induced”.
Take `O=C(O)[C@@H]1[C@H](C(=O)O)NCCN1C(=O)c1ccc2c(ccc3ccccc32)c1` [PPDA]: the “block of mGluR5-SIC by PPDA” value in the assay with NMDA receptors (0.2 μM) is listed as “blocked”.
For the compound “WT mGluR5: full-length mGluR5 expressed in HEK293 cells”, in the assay with GST-Pin1, the “GST-Pin1 binding to full-length mGluR5” value is recorded as “bound”.
On to `C[C@]12N[C@H](Cc3ccccc31)c1ccccc12` [MK-801], for which, in the assay on NMDA receptors (in the recording pipette), the “block of mGluR-SIC by MK-801” value is on record as “Blockade”.
On to `N#CC(=C(/N)Sc1ccccc1N)/C(C#N)=C(/N)Sc1ccccc1N` [UO126], for which the “block of BDNF potentiation of mGluR5-SIC by MEK inhibitor” value in the assay on mGluR5-SIC [4] (20 μM) is “blocked BDNF potentiation”.
In the case of “mGluR5(T1123A, S1126A): mutant that prevents phosphorylation at both sites”, the “GST-Pin1 binding to full-length mGluR5” value in the assay on GST-Pin1 is recorded as “did not bind”.
For `[Cl-].[K+]` [KCl], the Homer1a induction result on Homer1a [5] was “induced Homer1a”.
Turning to `Cc1cccc(C#Cc2ccccc2)n1` [MPEP, 2-Methyl-6-(phenylethynyl)pyridine], the “block of mGluR5-SIC by MPEP” value in the assay with mGluR5 [6] is “blocked”.
In the case of `N[C@@H](CCCP(=O)(O)O)C(=O)O` [APV], in the assay with NMDA receptors (50 μM), the “block of mGluR5-SIC by APV” value is “blocked”.
As to “mGluR5-pS: mGluR5 peptide phosphorylated at S^1126 in vitro (KELVALTPP[pS]PFRD)”, the “Pin1 catalysis of pS1126-P bond in the presence of equimolar Homer1a” value with Pin1 was “Pin1 was able to catalyze isomerization of pS^1126-P bond”. In addition, the “increase in Homer1a affinity on S1126 phosphorylation” value in the assay with Homer1a [7] was over 10 fold.
Regarding “mGluR5(S1126A): mutant that prevents phosphorylation at S1126”, the “GST-Pin1 binding to full-length mGluR5” value in the assay on GST-Pin1 was “bound”.
In the case of “Ac-FY[pS]PR-NH2 [Pin1 control peptide mimic]”, in the assay with mGluR5-SIC [4], the “effect of Pin1 peptide on BDNF potentiation of mGluR5-SIC” value is listed as “not by Pin1 control peptide mimic”.
Take `COC(=O)[C@@]1(O)C[C@H]2O[C@]1(C)n1c3ccccc3c3c4c(c5c6ccccc6n2c5c31)C(=O)NC4` [K252a]: the “block of BDNF potentiation of mGluR5-SIC by TrkB inhibitor” value in the assay on mGluR5-SIC [4] (100 nM) was “blocked BDNF potentiation”.
In the case of “mGluR5(T1123A): mutant that prevents phosphorylation at T1123”, the “GST-Pin1 binding to full-length mGluR5” value in the assay on GST-Pin1 was “bound”.
For the compound `Oc1cc2c(cc1O)C(c1ccccc1)CNCC2` (stereo not shown) [SKF38393], the “mGluR5-SIC potentiation, D1R-GFP neurons” value with mGluR5-SIC [8] (SKF38393 1 μM after KCl pretreatment, D1-GFP, n = 8, p < 0.001) was “robust and consistent potentiation”. Further, in the assay with mGluR5-SIC [8] (SKF38393 1 μM after KCl pretreatment, D2-GFP, n = 10), the “mGluR5-SIC potentiation, D2-GFP neurons” value was “not D2 receptor-expressing neurons”. In the assay on mGluR5-SIC [8] (SKF38393 1 μM, bath, Homer1−/−Homer2−/−Homer3−/− neurons), the “mGluR5-SIC potentiation, Homer triple knockout neurons” value is “potentiated”. Also, the “neurons with potentiation of mGluR5-SIC” value in the assay with mGluR5-SIC [8] (SKF38393 1 μM, Homer1−/−Homer2−/−Homer3−/− neurons, p < 0.005) is 6 of 13 neurons. The “depotentiation, pretreatment, WT slices” value in [9] (0.5 hrs before HFS, n = 6 and n = 8) is on record as “prevented depotentiation”. Besides, in [9] (0.5 hrs before HFS, n = 10), the “depotentiation, pretreatment, Homer1a−/− slices” value is “failed to block depotentiation”. Besides, the “depotentiation, pretreatment, Grm5AA/AA slices” value in assay [9] (0.5 hrs before HFS, n = 12) is listed as “failed to block depotentiation”. Besides, the “depotentiation, acute, WT slices” value in assay [9] (beginning 25 min after HFS, n = 4) is “did not block depotentiation”. The “depotentiation, acute, Grm5R/R slices” value in assay [9] (beginning 25 min after HFS, n = 6) is reported as “did block depotentiation”.
For the compound `CC(C(O)c1ccc(O)cc1)N1CCC(Cc2ccccc2)CC1` (stereo not shown) [ifenprodil], the “block of mGluR5-SIC by ifenprodil” value with NMDA receptors is given as “blocked”.
Regarding “Ac–Phe–Phe–pSer-Ψ[(Z)CH=C]-Pro–Arg–NH2 [Pin1 peptide mimic inhibitor]”, in the assay with mGluR5-SIC [4], the “effect of Pin1 peptide on BDNF potentiation of mGluR5-SIC” value is recorded as “blocked”.
